Source: patent publication US20250296971A1, “GASTRIC INHIBITORY PEPTIDE RECEPTOR LIGANDS” (priority 2021, published 2025)
Like-named read-outs stand apart in the source and are kept apart here. *1 amine or outer side, *2 acyl side, *3 side chain or, on linkers, in order; H or OH if unused. Where a SMILES comes first, the peptide text is derived from it. Bridges are numbered along the chain shown (N, C = ends). [ ]: non-standard residue; d: D form. The star is where a group is joined. X16 = NC(=O)[C@H](CCCCNC(=O)CN1CCN2CCN3CCN(CC1)CC(=O)[O][Lu]([O]C(=O)C2)[O]C(=O)C3)NC(=O)CCC(=O)NCCCOCCOCCOCCCN*; X5 = NC(=O)[C@H](CCCCNC(=O)CN1CCN(CC(=O)O)CCN(CC(=O)O)CCN(CC(=O)O)CC1)NC(=O)CCC(=O)NCCCOCCOCCOCCCN*; X3 = O=C(O)CN1CCN(CC(=O)O)CCN(CC(=O)NCCCOCCOCCOCCCN*)CCN(CC(=O)O)CC1; NH(1-deoxy-D-glucityl) = OC[C@@H](O)[C@@H](O)[C@H](O)[C@@H](O)CN*; DOTA = O=C(O)CN1CCN(CC(=O)O)CCN(CC(=O)*)CCN(CC(=O)O)CC1; Trp(5-Cl) = N[C@@H](Cc1c[nH]c2ccc(Cl)cc12)C(=O)O; Pyridine(2,6-diCH2) = c1cc(C[*:1])nc(C[*:2])c1; Trp(6-F) = N[C@@H](Cc1c[nH]c2cc(F)ccc12)C(=O)O; Pro(4R-NH2) = N[C@H]1CN[C@H](C(=O)O)C1; 1Nal = N[C@@H](Cc1cccc2ccccc12)C(=O)O; mXylylene = c1cc(C[*:1])cc(C[*:2])c1; X7 = c1cc(CSCCN[*:2])cc(C[*:1])c1; Cya = N[C@@H](CS(=O)(=O)O)C(=O)O; Hyp = O=C(O)[C@@H]1C[C@@H](O)CN1; X1 = O=C(CN1CCC(N[*:1])CC1)[*:2]; NMeL = CN[C@@H](CC(C)C)C(=O)O; Suc = O=C(CCC(=O)[*:2])[*:1]; Ac6c = NC1(C(=O)O)CCCCC1; Thp = NC1(C(=O)O)CCOCC1; AEEA = NCCOCCOCC(=O)O; Aib = CC(C)(N)C(=O)O; Bn = c1ccc(C*)cc1

Target: T1, GIPR (CHO-K1-hGIPR cells) (Homo sapiens, UniProt P48546)
T1 construct: host or cells: CHO-K1
T1 sequence (P48546 22-466): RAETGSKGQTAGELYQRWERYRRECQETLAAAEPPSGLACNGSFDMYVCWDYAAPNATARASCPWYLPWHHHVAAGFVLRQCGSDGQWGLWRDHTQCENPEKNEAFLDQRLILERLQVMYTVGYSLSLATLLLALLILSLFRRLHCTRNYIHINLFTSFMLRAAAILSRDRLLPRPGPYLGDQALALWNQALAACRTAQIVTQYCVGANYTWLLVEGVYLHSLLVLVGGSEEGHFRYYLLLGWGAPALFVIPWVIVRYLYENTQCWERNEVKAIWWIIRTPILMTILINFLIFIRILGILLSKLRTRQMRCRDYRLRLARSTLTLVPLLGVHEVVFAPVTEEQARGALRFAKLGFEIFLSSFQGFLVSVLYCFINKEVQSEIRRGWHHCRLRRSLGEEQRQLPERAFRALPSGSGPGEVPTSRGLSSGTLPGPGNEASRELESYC
Assay: FACS binding assay
Method in brief: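 CHO-K1 cells stably expressing human GIPR were detached with Accutase, suspended at 500.000 cells per mL in PBS with 1% FCS, and washed ice-cold. Bound peptide was detected with 1 μg/mL APC-streptavidin for 30 min on ice.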

[1] = competition with 20 nM GIP-057, 4° C., 1 hour, read-out: pIC50 Category (converted)
[2] = competition with 20 nM GIP-057, 4° C. for 1 hour, read-out: pIC50 Category (converted)

IC50 [1] [nM]	IC50 [2] [nM]	Structure (SMILES)	further results
	> 1000	CSCC[C@H](N)C(=O)N[C@@H](Cc1ccc(O)cc1)C(=O)N[C@@H](CC(=O)O)C(=O)N[C@@H](Cc1c[nH]c2ccccc12)C(=O)N[C@@H](Cc1c[nH]c2ccccc12)C(=O)N1CCC[C@H]1C(=O)N[C@@H](CCC(=O)O)C(=O)N[C@@H](CC(C)C)C(=O)N[C@H]1CSCc2cccc(c2)CSC[C@@H](C(N)=O)NC(=O)[C@H](C)NC(=O)[C@H](CC(C)C)NC(=O)[C@H](C)NC1=O [GIP-337] (H-MYDWWPELCALAC-NH2; linker 9-13 via mXylylene)	
< 10		CC[C@H](C)[C@@H]1NC(=O)[C@H](CC(C)C)NC(=O)C2(CCOCC2)NC(=O)[C@@H](NC(=O)[C@@H](NC(=O)[C@H](CCC(=O)O)NC(=O)[C@@H]2C[C@@H](O)CN2C(=O)[C@H](Cc2c[nH]c3ccc(Cl)cc23)NC(=O)[C@H](Cc2c[nH]c3ccccc23)NC(=O)[C@H](CC(=O)O)NC(C)=O)C(C)C)CSCc2cccc(n2)CSC[C@@H](C(N)=O)NC1=O [GIP-219, Ac-Asp-Trp-5Clw-Hyp-Glu-Val-[Cys(2Lut)-Thp-Leu-Ile-Cys]-NH2] (Ac-DW[Trp(5-Cl)][Hyp]EVC[Thp]LIC-NH2; linker 7-11 via Pyridine(2,6-diCH2))	
	100 to 794	CC[C@H](C)[C@@H]1NC(=O)[C@H](CC(C)C)NC(=O)[C@@H](C)NC(=O)[C@@H](NC(=O)[C@H](CC(C)C)NC(=O)[C@H](CCC(=O)O)NC(=O)[C@@H]2CCCN2C(=O)[C@H](Cc2c[nH]c3ccccc23)NC(=O)[C@H](Cc2c[nH]c3ccccc23)NC(=O)[C@H](CC(=O)O)NC(=O)CCC(=O)NCCCOCCOCCOCCCNC(=O)CN2CCN(CC(=O)O)CCN(CC(=O)O)CCN(CC(=O)O)CC2)CSCc2cccc(c2)CSC[C@@H](C(N)=O)NC1=O [GIP-271, DOTA-Ttds-asp-Trp-Trp-Pro-Glu-Leu-[Cys(3MeBn)-ala-Leu-Ile-Cys]-NH2] ({X3-Suc}-DWWPELC[dA]LIC-NH2; linker 7-11 via mXylylene)	
< 10		CC[C@H](C)[C@@H]1NC(=O)[C@H](Cc2c[nH]c3ccccc23)NC(=O)C2(CCOCC2)NC(=O)[C@@H](NC(=O)[C@@H](CC(C)C)NC(=O)[C@H](CCC(=O)O)NC(=O)[C@@H]2C[C@@H](O)CN2C(=O)[C@H](Cc2c[nH]c3ccc(Cl)cc23)NC(=O)[C@H](Cc2c[nH]c3ccccc23)NC(=O)[C@H](CC(=O)O)NC(C)=O)CSCc2cccc(n2)CSC[C@@H](C(N)=O)NC1=O [GIP-233, Ac-Asp-Trp-5Clw-Hyp-Glu-leu-[Cys(2Lut)-Thp-Trp-Ile-Cys]-NH2] (Ac-DW[Trp(5-Cl)][Hyp]E[dL]C[Thp]WIC-NH2; linker 7-11 via Pyridine(2,6-diCH2))	
	> 1000	CC[C@H](C)[C@@H]1NC(=O)[C@@H](CC(C)C)NC(=O)[C@H](C)NC(=O)[C@@H](NC(=O)[C@H](CC(C)C)NC(=O)[C@H](CCC(=O)O)NC(=O)[C@@H]2CCCN2C(=O)[C@H](Cc2c[nH]c3ccccc23)NC(=O)[C@H](Cc2c[nH]c3ccccc23)NC(=O)[C@H](CC(=O)O)NC(=O)[C@H](Cc2ccc(O)cc2)NC(=O)[C@@H](N)CCSC)CSCc2cccc(c2)CSC[C@@H](C(N)=O)NC1=O [GIP-330] (H-MYDWWPELCA[dL]IC-NH2; linker 9-13 via mXylylene)	
	100 to 794	CC[C@H](C)[C@@H]1NC(=O)[C@H](CC(C)C)NC(=O)[C@H](C)NC(=O)[C@@H](NC(=O)[C@H](CC(C)C)NC(=O)[C@H](CCC(=O)O)NC(=O)[C@@H]2CCCN2C(=O)[C@H](Cc2c[nH]c3ccccc23)NC(=O)[C@H](Cc2c[nH]c3ccccc23)NC(=O)[C@H](CS(=O)(=O)O)NC(C)=O)CSCc2cccc(c2)CSC[C@@H](C(N)=O)NC1=O [GIP-317, Ac-Cya-Trp-Trp-Pro-Glu-Leu-[Cys(3MeBn)-Ala-Leu-Ile-Cys]-NH2] (Ac-[Cya]WWPELCALIC-NH2; linker 7-11 via mXylylene)	
	> 1000	CC[C@H](C)[C@H](NC(=O)[C@H](CC(C)C)NC(=O)[C@H](C)NC(=O)[C@H](CSC)NC(=O)[C@H](CC(C)C)NC(=O)[C@H](CCC(=O)O)NC(=O)[C@@H]1CCCN1C(=O)[C@H](Cc1c[nH]c2ccccc12)NC(=O)[C@H](Cc1c[nH]c2ccccc12)NC(=O)[C@H](CC(=O)O)NC(=O)[C@H](Cc1ccc(O)cc1)NC(=O)[C@@H](N)CCSC)C(=O)N[C@@H](CSCc1ccccc1)C(N)=O [GIP-369] (H-MYDWWPELC(Me)ALIC(Bn)-NH2)	

The next lines start with the compound.

Structure (SMILES)	IC50 [1] [nM]	IC50 [2] [nM]	further results
CC[C@H](C)[C@@H]1NC(=O)[C@H](CC(C)C)NC(=O)C2(CCCCC2)NC(=O)[C@@H](NC(=O)[C@@H](CC(C)C)NC(=O)[C@H](CCC(=O)O)NC(=O)[C@@H]2CCCN2C(=O)[C@H](Cc2c[nH]c3ccc(Cl)cc23)NC(=O)[C@H](Cc2c[nH]c3ccccc23)NC(=O)[C@H](CC(=O)O)NC(=O)CCC(=O)NCCCOCCOCCOCCCNC(=O)CN2CCN(CC(=O)O)CCN(CC(=O)O)CCN(CC(=O)O)CC2)CSCc2cccc(c2)CSCCNC1=O [GIP-086, DOTA-Ttds-Asp-Trp-5Clw-Pro-Glu-leu-[Cys(3MeBn)-Egz-Leu-Ile-AET]] ({X3-Suc}-DW[Trp(5-Cl)]PE[dL]C[Ac6c]LI; linker 7-C via X7)	< 10		
CC[C@H](C)[C@@H]1NC(=O)[C@H](CC(C)C)NC(=O)C2(CCCCC2)NC(=O)[C@@H](NC(=O)[C@@H](CC(C)C)NC(=O)[C@H](CCC(=O)O)NC(=O)[C@@H]2CCCN2C(=O)[C@H](Cc2cccc3ccccc23)NC(=O)[C@H](Cc2c[nH]c3ccccc23)NC(=O)[C@H](CC(=O)O)NC(C)=O)CSCc2cccc(c2)CSC[C@@H](C(=O)NCCCOCCOCCOCCCNC(=O)CCC(=O)N[C@@H](CCCCNC(=O)CN2CCN3CCN4CCN(CC2)CC(=O)[O][Lu]([O]C(=O)C3)[O]C(=O)C4)C(N)=O)NC1=O [GIP-173, Ac-Asp-Trp-1Ni-Pro-Glu-leu-[Cys(3MeBn)-Egz-Leu-Ile-Cys]-Ttds-Lys(LuDOTA)-NH2] (Ac-DW[1Nal]PE[dL]C[Ac6c]LIC-X16; linker 7-11 via mXylylene)			IC50 (pIC50 Category, competition with 20 nM GIP-057, 4° C., 1 hour): 10 to 79.4 nM
CC[C@H](C)[C@@H]1NC(=O)[C@H](CC(C)C)NC(=O)C(C)(C)NC(=O)[C@@H](NC(=O)[C@H](CC(C)C)N(C)C(=O)[C@H](CCC(=O)O)NC(=O)[C@@H]2CCCN2C(=O)[C@H](Cc2c[nH]c3ccccc23)NC(=O)[C@H](Cc2c[nH]c3ccccc23)NC(=O)[C@H](CC(=O)O)NC(C)=O)CSCc2cccc(c2)CSC[C@@H](C(=O)NCCCOCCOCCOCCCNC(=O)CCC(=O)N[C@@H](CCCCNC(=O)CN2CCN(CC(=O)O)CCN(CC(=O)O)CCN(CC(=O)O)CC2)C(N)=O)NC1=O [GIP-290, Ac-Asp-Trp-Trp-Pro-Glu-Nml-[Cys(3MeBn)-Aib-Leu-Ile-Cys]-Ttds-Lys(DOTA)-NH2] (Ac-DWWPE[NMeL]C[Aib]LIC-X5; linker 7-11 via mXylylene)		> 1000	
CC[C@H](C)[C@@H]1NC(=O)[C@H](CC(C)C)NC(=O)C2(CCOCC2)NC(=O)[C@@H](NC(=O)[C@@H](CC(C)C)NC(=O)[C@H](CCC(=O)O)NC(=O)[C@@H]2C[C@@H](N)CN2C(=O)[C@H](Cc2c[nH]c3ccc(Cl)cc23)NC(=O)[C@H](Cc2c[nH]c3ccccc23)NC(=O)[C@H](CC(=O)O)NC(=O)[C@@H](CCC(=O)NC[C@H](O)[C@@H](O)[C@H](O)[C@H](O)CO)NC(=O)COCCOCCNC(=O)CN2CCN(CC(=O)O)CCN(CC(=O)O)CCN(CC(=O)O)CC2)CSCc2cccc(n2)CSC[C@@H](C(=O)NC2CCN(CC(=O)N[C@H](CCC(=O)NC[C@H](O)[C@@H](O)[C@H](O)[C@H](O)CO)C(N)=O)CC2)NC1=O [GIP-018, DOTA-O2Oc-glu(AGLU)-Asp-Trp-5Clw-Tap-Glu-leu-[Cys(2Lut)-Thp-Leu-Ile-Cys]-APAc-glu(AGLU)-NH2] ({DOTA-AEEA}-[dE](NH(1-deoxy-D-glucityl))DW[Trp(5-Cl)][Pro(4R-NH2)]E[dL]C[Thp]LIC[X1][dE](NH(1-deoxy-D-glucityl))-NH2; linker 8-12 via Pyridine(2,6-diCH2))	< 10		
CC[C@H](C)[C@@H]1NC(=O)[C@H](CC(C)C)NC(=O)C(C)(C)NC(=O)[C@@H](NC(=O)[C@@H](CC(C)C)NC(=O)[C@H](CCC(=O)O)NC(=O)[C@@H]2CCCN2C(=O)[C@H](Cc2c[nH]c3ccc(Cl)cc23)NC(=O)[C@H](Cc2c[nH]c3cc(F)ccc23)NC(=O)[C@H](CC(=O)O)NC(=O)CCC(=O)NCCCOCCOCCOCCCNC(=O)CN2CCN(CC(=O)O)CCN(CC(=O)O)CCN(CC(=O)O)CC2)CSCc2cccc(c2)CSCCNC1=O [GIP-104, DOTA-Ttds-Asp-6Fw-5Clw-Pro-Glu-leu-[Cys(3MeBn)-Aib-Leu-Ile-AET]] ({X3-Suc}-D[Trp(6-F)][Trp(5-Cl)]PE[dL]C[Aib]LI; linker 7-C via X7)	< 10		
CC[C@H](C)[C@@H]1NC(=O)[C@H](CC(C)C)NC(=O)C(C)(C)NC(=O)[C@@H](NC(=O)[C@H](CC(C)C)NC(=O)[C@H](CCC(=O)O)NC(=O)[C@@H]2CCCN2C(=O)[C@H](Cc2c[nH]c3ccc(Cl)cc23)NC(=O)[C@H](Cc2c[nH]c3ccccc23)NC(=O)[C@H](CC(=O)O)NC(C)=O)CSCc2cccc(c2)CSC[C@@H](C(=O)NCCCOCCOCCOCCCNC(=O)CCC(=O)N[C@@H](CCCCNC(=O)CN2CCN(CC(=O)O)CCN(CC(=O)O)CCN(CC(=O)O)CC2)C(N)=O)NC1=O [GIP-076, Ac-Asp-Trp-5Clw-Pro-Glu-Leu-[Cys(3MeBn)-Aib-Leu-Ile-Cys]-Ttds-Lys(DOTA)-NH2] (Ac-DW[Trp(5-Cl)]PELC[Aib]LIC-X5; linker 7-11 via mXylylene)	< 10		
